Measurements taken from patent US12421496B2, “Method for producing natural killer cell and use thereof” (KOREA RESEARCH INSTITUTE OF BIOSCIENCE AND BIOTECHNOLOGY, priority 2017, dated 2025).

Columns and labels:
[1] = test system: PBMC cells into which OSKM was introduced; assay: Efficiency of direct reprogramming depending on composition of NKIM-II medium; assay type: cell-based, human; conditions: added to NKIM-II medium, cultured for 29 days after 6 days in NKIM-I
Description: (§1) After introducing reprogramming factors (Oct4, Sox2, Klf4, and Myc) into PBMC cultured in the NKIM-I medium and NKIM-II medium, a mixture additive was added to the medium for analysis to promote the production capacity of natural killer cells produced by direct reprogramming.
In the case of NKIM-II medium, after introducing OSKM into PBMC cells, the following day, 1×10^5 transformed cells were added to a 48-well culture dish and cultured in NKIM-I medium for 6 days, and then these cells were cultured for 29 days in a medium in which StemRegenin I, which is an aryl hydrocarbon receptor antagonist, CH-223191, or FICZ, which is an aryl hydrocarbon receptor agonist, was added to NKIM-II.

PBMC (CD34−CD56−) cells = assay: Role of GSK3β inhibitor in direct reprogramming from PBMC to natural killer cells, flow cytometry; assay type: cell-based, human; conditions: when CT99021 (5 μM) was not added to NKIM-I medium, compared with added; 24th day
Description: On the 24th day when direct reprogramming was started as in Example 1, the cells were recovered and stained using antibodies against CD56 and CD4 attached with fluorescence and then the group of natural killer cells (CD56^+ and CD4^−) was analyzed by flow cytometry.

[2] = test system: PBMC into which OSKM was introduced; assay: Efficiency of direct reprogramming depending on composition of NKIM-I medium; assay type: cell-based, human; conditions: single additive in NKIM-I medium compared with the condition without additives
Description: as §1
Specifically, in the case of NKIM-I medium, after introducing OSKM into PBMC, the following day, 1×10^5 transformed cells were added to a 48-well culture dish in the reprogramming culture process with different combinations of 5 μM CHIR 99021, 2 mM LiCl, […], and 20 ng/mL human IL-15 in NKIM-I medium, and the production capacity of CD56+ induced natural killer cells was thereby confirmed.

SW620 = assay: In vivo anti-cancer effect, subcutaneous SW620 tumor in nude mice; parameters: species or system Balb/c-nude mouse; conditions: 2 mg/kg i.p. every other day for two weeks; day 28
Description: In addition, in vivo experiments were performed using mice to verify the anti-cancer effect of induced natural killer cells. The day after subcutaneous injection of 2×10^6 Sw620 into the back of 8-week-old nude mice (Balb/c-nude mouse, average weight 20 g to 25 g), induced natural killer cells (5×10^6, 1.5×10^7) and 2 mg/kg of doxorubicin were injected. Induced natural killer cells were injected intravenously (i.v.) twice on D1 and D4, and doxorubicin was injected intraperitoneally (i.p) every two days (every other day) for two weeks. On the 28th day, the mice of each group were sacrificed by cervical dislocation technique, and the protruding cancer masses formed under the skin of the mice of each group were extracted. The extracted Sw620 cancer was compared by group to confirm the anti-cancer effect of induced natural killer cells (FIG. 13A).

| Molecule | yield of induced natural killer cells [1] | production of CD56+CD3− induced natural killer cells [2] | also measured |
| --- | --- | --- | --- |
| Cc1ccccc1N=Nc1ccc(NC(=O)c2ccnn2C)c(C)c1 [CH-223191] | significantly increased |  |  |
| Cc1c[nH]c(-c2cnc(NCCNc3ccc(C#N)cn3)nc2-c2ccc(Cl)cc2Cl)n1 [CT99021] |  | effect of promoting the production | differentiation into natural killer cells (CD56+ and CD4−) (PBMC (CD34−CD56−) cells): significantly lowered |
| O=Cc1c2[nH]c3ccccc3c2cc2[nH]c3ccccc3c12 [FICS] | significantly reduced |  |  |
| [Cl-].[Li+] [LiCl] |  | effect of promoting the production |  |
| CC(C)n1cnc2c(NCCc3ccc(O)cc3)nc(-c3csc4ccccc34)nc21.Cl [StemRegenin I, (4-(2-((2-benzo[b]thiphen-3-yl)-9-isopropyl-9H-purin-6-yl)amino)ethyl)phenol hydrochloride] | significantly increased | effect of promoting the production |  |
| COc1cccc2c1C(=O)c1c(O)c3c(c(O)c1C2=O)C[C@@](O)(C(=O)CO)C[C@@H]3O[C@H]1C[C@H](N)[C@H](O)[C@H](C)O1 [doxorubicin] |  |  | tumor size (SW620): 262 mm^3 |
| IL-15: human interleukin 15, cytokine additive |  | effect of promoting the production |  |
| IL-7: human interleukin 7, cytokine additive (protein, UniProt P13232 26-177, looked up) Interleukin-7: DCDIEGKDGKQYESVLMVSIDQLLDSMKEIGSNCLNNEFNFFKRHICDANKEGMFLFRAARKLRQFLKMNSTGDFDLHLLKVSEGTTILLNCTGQVKGRKPAALGEAQPTKSLEENKSLKEQKKLNDLCFLKRLLQEIKTCWNKILMGTKEH |  | effect of promoting the production |  |
